Data on one compound can be found in paper PMC7614683, “A small molecule PI3Kα activator for cardioprotection and neuroregeneration” (Nature, 2023).

In assay [1] the test system is PI3Kα-KO MEFs transiently transfected with PIK3CA constructs. The assay can be described thus: pAKT S473 in PI3Kα-KO MEFs transfected with p110α-WT or p110α-mutants. In kind it is cell-based, mouse. Conditions: 1938 5 μM. From the text:
Flag-PIK3R1 (a kind gift of Neil Vasan), PIK3CA-WT and mutant PIK3CA (D603K, L1006R, F1016S and L1006R/F1016S) were cloned into pcDNA3.4TOPO. pcDNA3-eGFP was used as a control for transfection efficiency and is available on Addgene repository upon request (Plasmid #13031). The mutations in PIK3CA were introduced by site-directed mutagenesis according to published commercial protocols using NEBuilder HiFi DNA Assembly Master Mix (NEB E2621). For each mutation, a pair of primers were designed to incorporate a mutation within the gene, with the resulting PCR products containing a 20 bp overlap and the desired mutations. The DpnI-treated and purified PCR products were combined with the linearized vector and treated with the NEBuilder HiFi DNA Assembly Master Mix. Following transformation, single colonies were grown and purified with QIAprep spin Miniprep kit (Qiagen 27106). All plasmids were sequenced for verification.
eGFP, Flag-PIK3R1, PIK3CA-WT and mutant PIK3CA (D603K, L1006R, F1016S, L1006R/F1016S) plasmids were used for transient transfection. Pik3ca-KO MEFs cells were seeded at 70-80% confluency in 6-well plate at 100,000 cells per well. […]

For the next assay, the target named is T1, PI3Kα E545K mutant (Homo sapiens, UniProt P42336, E545K).
T1 construct: Full-length human p110α was expressed either in a complex with full-length human p85α (for HTS, biochemistry and HDX-MS); 6xHis tag followed by TEV protease site (N); host or cells: Sf9, baculovirus
T1 sequence (P42336 whole entry E545K): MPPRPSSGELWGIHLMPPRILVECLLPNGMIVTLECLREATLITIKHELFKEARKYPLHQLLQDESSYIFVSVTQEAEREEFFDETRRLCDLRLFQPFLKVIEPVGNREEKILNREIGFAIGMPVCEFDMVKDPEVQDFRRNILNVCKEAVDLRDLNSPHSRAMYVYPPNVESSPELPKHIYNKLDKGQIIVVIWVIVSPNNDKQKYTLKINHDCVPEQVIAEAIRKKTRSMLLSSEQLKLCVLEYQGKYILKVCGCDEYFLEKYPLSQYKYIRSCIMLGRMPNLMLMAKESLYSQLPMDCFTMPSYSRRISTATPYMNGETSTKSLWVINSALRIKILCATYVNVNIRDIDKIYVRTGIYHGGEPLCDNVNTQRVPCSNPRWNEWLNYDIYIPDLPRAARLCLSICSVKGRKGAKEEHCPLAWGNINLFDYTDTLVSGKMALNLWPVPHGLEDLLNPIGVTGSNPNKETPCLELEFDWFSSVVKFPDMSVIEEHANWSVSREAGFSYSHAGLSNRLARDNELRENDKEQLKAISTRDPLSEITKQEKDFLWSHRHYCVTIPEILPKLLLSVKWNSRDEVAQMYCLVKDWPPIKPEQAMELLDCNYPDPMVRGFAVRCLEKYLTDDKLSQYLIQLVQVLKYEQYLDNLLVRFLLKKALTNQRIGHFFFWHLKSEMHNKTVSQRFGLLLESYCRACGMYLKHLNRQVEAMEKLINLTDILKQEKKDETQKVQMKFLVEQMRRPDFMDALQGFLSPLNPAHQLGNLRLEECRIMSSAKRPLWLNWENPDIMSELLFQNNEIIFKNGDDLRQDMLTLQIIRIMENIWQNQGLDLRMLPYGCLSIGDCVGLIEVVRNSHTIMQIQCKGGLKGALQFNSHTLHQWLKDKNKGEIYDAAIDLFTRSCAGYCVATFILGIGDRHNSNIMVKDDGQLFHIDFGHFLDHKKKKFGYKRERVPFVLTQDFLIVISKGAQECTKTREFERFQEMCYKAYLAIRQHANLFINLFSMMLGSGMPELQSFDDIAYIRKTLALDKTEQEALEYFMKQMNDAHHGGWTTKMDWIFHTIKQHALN
T1 sequence (P27986 whole entry partner): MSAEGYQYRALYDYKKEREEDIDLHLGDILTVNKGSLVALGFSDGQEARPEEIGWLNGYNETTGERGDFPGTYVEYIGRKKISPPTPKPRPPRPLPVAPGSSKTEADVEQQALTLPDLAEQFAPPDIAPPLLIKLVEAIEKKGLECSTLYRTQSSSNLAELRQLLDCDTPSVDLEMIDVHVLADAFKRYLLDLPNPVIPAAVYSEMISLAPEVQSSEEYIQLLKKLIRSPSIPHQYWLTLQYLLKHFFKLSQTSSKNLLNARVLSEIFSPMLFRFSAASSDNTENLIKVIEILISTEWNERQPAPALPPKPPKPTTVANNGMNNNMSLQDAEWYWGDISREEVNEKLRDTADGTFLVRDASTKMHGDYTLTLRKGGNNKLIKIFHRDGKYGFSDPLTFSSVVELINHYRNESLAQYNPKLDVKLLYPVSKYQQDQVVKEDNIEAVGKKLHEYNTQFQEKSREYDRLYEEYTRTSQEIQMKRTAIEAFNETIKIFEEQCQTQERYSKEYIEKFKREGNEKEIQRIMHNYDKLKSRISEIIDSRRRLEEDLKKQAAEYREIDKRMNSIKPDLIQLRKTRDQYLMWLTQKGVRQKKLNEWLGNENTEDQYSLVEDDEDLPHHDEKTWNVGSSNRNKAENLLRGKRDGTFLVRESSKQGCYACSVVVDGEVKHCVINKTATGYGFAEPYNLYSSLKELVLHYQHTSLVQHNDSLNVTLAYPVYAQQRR
Kind of assay: ADP-Glo catalytic activity, oncogenic mutant E545K. The format is biochemical. The protocol: Expression and purification of wild-type p110α (Cambridge MRC Laboratory for Molecular Biology (LMB-MRC) plasmid number OP831) in a complex with full-length p85α (LMB-MRC plasmid OP809) was performed as described. The oncogenic mutants G106V (LMB-MRC plasmid JB35), N345K (LMB-MRC plasmid OP661) and E545K (LMB-MRC plasmid OP663) were also purified using this protocol. Briefly, 10 litres of Spodoptera frugiperda (Sf9) cell culture at a density of 1.0 x 10^6 cells/ml were co-infected with a p85α-encoding virus [LMB-MRC plasmid OP809]. and a virus encoding p110α with an N-terminal 6xHis tag followed by a tobacco etch virus (TEV) protease site [LMB-MRC plasmid OP831]. After a 48 h infection at 27°C, cells were harvested and washed with PBS. […]
For characterisation of the effects of 1938 on in vitro PI3K enzymology, all reactions were performed at room temperature with 384 white-polystyrene plates (Corning #3574). […] Data was expressed as velocity (nmol of ADP generated/nmol of enzyme/sec). […] Luminescence was read using a PHERAstar® plate reader with software version 5.41, and analyses were performed using GraphPad Prism 8/9.
For orientation: In ADP-Glo the light output rises with the ADP produced.

With `CCN1CCN(c2ccc(Nc3cc(Nc4cccc5c4N(C(C)=O)CC5)ccn3)cc2)CC1` [Compound 1938], the “pAKT^S473 stimulation after expression of WT PI3Kα” value in assay [1] is recorded as “restored 1938-mediated pAKT^S473 stimulation”. Besides, the “pAKT^S473 induction after expression of 1938-resistant p110α-mutants” value in assay [1] (D603K, L1006R, F1016S, L1006R/F1016S) was “none of the p110α-mutants resistant to 1938-activation in in vitro kinase assays showed a response”. For the same compound, the “activation of E545K mutant” value on PI3Kα E545K mutant is reported as “could be further activated by 1938”.
